From patent publication US8999983B2, “Modulators of Hec1 activity and methods therefor” (Taivex Therapeutics Corporation, priority 2011, dated 2015)
Like-named read-outs stand apart in the source and are kept apart here.

Tests used:
Type in all cases: cell-based
MDA-MB-468 = experiment: Antiproliferation assay (MTS), MDA-MB-468 cells; conditions: Homo sapiens, MDA-MB-468, 96 h
Method: (§1) Cells were grown at 37° C. in a humidified atmosphere consisting of 5% CO2 and 95% air.
(§2) Antiproliferation Assays: Cells were plated in a 96-well culture plate with 2000-8000 cells per well. The compounds were prepared in DMSO and used to treat cells in a final concentration of less than 1% DMSO. Compound treatment started after overnight incubation of cells (T0). […] Compound was added to the plate in triplicate wells, and the plates were then incubated for 96 hours. DMSO (compound diluent) was also included and added to the plate in control wells. Cell viability was then determined by MTS assay using the CellTiter 96® aqueous non-radioactive cell proliferation assay system (Promega, Madison, Wis. 53711 USA). A plate reader (Vmax, Molecular Devices, Sunnyvale Calif. 94089 USA) was used to determine the optical densities, and the results were used to deduce concentration-response curves. […] The results were analyzed using linear regression software (GraphPad Prism 5; GraphPad Software Inc. La Jolla Calif. 92037 USA).

Hela = experiment: Antiproliferation assay (MTS), HeLa cells; conditions: Homo sapiens, 96 h
Method: as §1, §2

MDA-MB-231 = experiment: Antiproliferation assay (MTS), MDA-MB-231 cells; conditions: Homo sapiens, MDA-MB-231, 96 h
Method: as §1, §2

K562 = experiment: Antiproliferation assay (MTS), K562 cells; conditions: Homo sapiens, K562, 96 h
Method: as §1, §2

[1] = Table 1, read-out: Antiproliferative IC50 MDA-MB-468
[2] = Table 1, read-out: Antiproliferative IC50 Hela
[3] = read-out: Antiproliferative IC50 MDA-MB-231, Table 1
[4] = Table 1, read-out: Antiproliferative IC50 K562

Row | IC50 (MDA-MB-468; [1]) [µM] | IC50 (Hela; [2]) [µM] | IC50 (MDA-MB-231; [3]) [µM] | IC50 (K562; [4]) [µM] | IC50 (MDA-MB-468; Table 2, read-out: Antiproliferative IC50 MDA-MB-468) [µM] | IC50 (Hela; Table 2, read-out: Antiproliferative IC50 Hela) [µM] | IC50 (MDA-MB-231; read-out: Antiproliferative IC50 MDA-MB-231, Table 2) [µM] | IC50 (K562; Table 2, read-out: Antiproliferative IC50 K562) [µM] | SMILES
1 | 0.0484 | 0.0816 | 0.0658 | 0.0391 | – | – | – | – | COc1ccc(Oc2cc(C)c(-c3csc(NC(=O)c4ccncc4)n3)c(C)c2)cn1 [Compound 9, N-{4-(4-(6-Methoxypyridin-3-yloxy)-2,6-dimethylphenyl)thiazol-2-yl}isonicotinamide]
2 | 1.28 | 1.12 | 1.7 | 0.734 | – | – | – | – | COCCOc1cnc([S+]([O-])c2cc(C)c(-c3csc(NC(=O)c4ccncc4)n3)c(C)c2)cn1 (stereo not drawn) [Compound 32, N-(4-{4-(5-(2-Methoxyethoxy)pyrazin-2-ylsulfinyl)-2,6-dimethylphenyl}thiazol-2-yl)isonicotinamide]
3 | 9.43 | 2.99 | 6.35 | 3.69 | – | – | – | – | COc1cc(F)cc(Cl)c1-c1csc(NC(=O)c2ccncc2)n1 [Compound 14, N-(4-(2-Chloro-4-fluoro-6-methoxyphenyl)thiazol-2-yl)isonicotinamide]
4 | 0.167 | 0.251 | 0.144 | 0.0867 | – | – | – | – | Cc1cc(N(C)C)cc(C)c1-c1csc(NC(=O)c2ccncc2)n1 [Compound 1, N-{4-(4-(Dimethylamino)-2,6-dimethylphenyl)thiazol-2-yl}isonicotinamide]
5 | 0.594 | 0.66 | 0.484 | 0.273 | – | – | – | – | COc1ccc(Oc2cc(C)c(-c3nc(NC(=O)c4ccncc4)sc3Br)c(C)c2)cc1 [Compound 2, N-{5-Bromo-4-(4-(4-methoxyphenoxy)-2,6-dimethylphenyl)thiazol-2-yl}isonicotinamide]
6 | 0.037 | 0.0486 | 0.032 | 0.0349 | – | – | – | – | COc1ccc(Oc2cc(C)c(-c3csc(NC(=O)c4ccncc4)n3)c(C)c2)cc1 [Compound 48, N-(4-(4-(4-Methoxyphenoxy)-2,6-dimethylphenyl)thiazol-2-yl)isonicotinamide]
7 | 0.0494 | 0.0664 | 0.0531 | 0.0266 | – | – | – | – | Cc1cc(Sc2ccc(NS(C)(=O)=O)cc2)cc(C)c1-c1csc(NC(=O)c2ccncc2)n1 [Compound 43, N-(4-(2,6-Dimethyl-4-((4-(methylsulfonamido)phenyl)thio)phenyl)thiazol-2-yl)isonicotinamide]
8 | 0.04 | 0.0427 | 0.02 | 0.0163 | – | – | – | – | COc1ccc(Oc2cc(C)c(-c3csc(NC(=O)c4ccnc(F)c4)n3)c(C)c2)cc1 [Compound 49, 2-Fluoro-N-(4-(4-(4-methoxyphenoxy)-2,6-dimethylphenyl)thiazol-2-yl)isonicotinamide]
9 | 1.01 | 0.903 | 1.24 | 0.563 | – | – | – | – | Cc1cc(Oc2ccc(O)nc2)cc(C)c1-c1csc(NC(=O)c2ccncc2)n1 [Compound 5, N-{4-(4-(6-Hydroxypyridin-3-yloxy)-2,6-dimethylphenyl)thiazol-2-yl}isonicotinamide]
10 | 1.02 | 0.375 | 0.386 | 0.247 | – | – | – | – | COc1cc(F)c(-c2csc(NC(=O)c3ccncc3)n2)c(Cl)c1 [Compound 13, N-(4-(2-Chloro-6-fluoro-4-methoxyphenyl)thiazol-2-yl)isonicotinamide]
11 | > 10 | > 10 | > 10 | > 10 | – | – | – | – | Cc1cc(OCCN(C)C)cc(C)c1-c1csc(NC(=O)c2ccncc2)n1 [Compound 23, N-(4-{4-(2-(Dimethylamino)ethoxy)-2,6-dimethylphenyl}thiazol-2-yl)isonicotinamide]
12 | 0.661 | 1.02 | 0.713 | 0.366 | – | – | – | – | Cc1cc(Oc2ncccn2)cc(C)c1-c1csc(NC(=O)c2ccncc2)n1 [Compound 6, N-{4-(2,6-Dimethyl-4-(pyrimidin-2-yloxy)phenyl)thiazol-2-yl}isonicotinamide]
13 | 0.279 | 0.301 | 0.183 | 0.0894 | – | – | – | – | Cc1cc(Sc2ccc(O)cc2)cc(C)c1-c1csc(NC(=O)c2ccncc2)n1 [Compound 34, N-{4-(4-(4-Hydroxyphenylsulfanyl)-2,6-dimethylphenyl)thiazol-2-yl}isonicotinamide]
14 | 0.0166 | 0.0083 | 0.0219 | 0.0117 | – | – | – | – | COCCNc1ccc(Oc2cc(C)c(-c3csc(NC(=O)c4ccncc4)n3)c(C)c2)cn1 [Compound 29, N-(4-{4-(6-(2-Methoxyethylamino)pyridin-3-yloxy)-2,6-dimethylphenyl}thiazol-2-yl)isonicotinamide]
15 | – | – | – | – | 0.3 | 0.62 | 0.31 | 0.38 | Cc1cc(C)c(-c2csc(NC(=O)Cc3ccncc3)n2)c(C)c1 [II-93, N-(4-Mesitylthiazol-2-yl)-2-(pyridin-4-yl)acetamide]
